pIC50: −log10 of the molar value.

The target of this experiment is T1, KCNT1 (KNa1.1, Slack) (Homo sapiens, UniProt Q5JUK3).
T1 construct: expressed in transfected cells; host or cells: HEK-TREX (tetracycline-inducible HEK cell line)
T1 sequence (Q5JUK3 1-1230): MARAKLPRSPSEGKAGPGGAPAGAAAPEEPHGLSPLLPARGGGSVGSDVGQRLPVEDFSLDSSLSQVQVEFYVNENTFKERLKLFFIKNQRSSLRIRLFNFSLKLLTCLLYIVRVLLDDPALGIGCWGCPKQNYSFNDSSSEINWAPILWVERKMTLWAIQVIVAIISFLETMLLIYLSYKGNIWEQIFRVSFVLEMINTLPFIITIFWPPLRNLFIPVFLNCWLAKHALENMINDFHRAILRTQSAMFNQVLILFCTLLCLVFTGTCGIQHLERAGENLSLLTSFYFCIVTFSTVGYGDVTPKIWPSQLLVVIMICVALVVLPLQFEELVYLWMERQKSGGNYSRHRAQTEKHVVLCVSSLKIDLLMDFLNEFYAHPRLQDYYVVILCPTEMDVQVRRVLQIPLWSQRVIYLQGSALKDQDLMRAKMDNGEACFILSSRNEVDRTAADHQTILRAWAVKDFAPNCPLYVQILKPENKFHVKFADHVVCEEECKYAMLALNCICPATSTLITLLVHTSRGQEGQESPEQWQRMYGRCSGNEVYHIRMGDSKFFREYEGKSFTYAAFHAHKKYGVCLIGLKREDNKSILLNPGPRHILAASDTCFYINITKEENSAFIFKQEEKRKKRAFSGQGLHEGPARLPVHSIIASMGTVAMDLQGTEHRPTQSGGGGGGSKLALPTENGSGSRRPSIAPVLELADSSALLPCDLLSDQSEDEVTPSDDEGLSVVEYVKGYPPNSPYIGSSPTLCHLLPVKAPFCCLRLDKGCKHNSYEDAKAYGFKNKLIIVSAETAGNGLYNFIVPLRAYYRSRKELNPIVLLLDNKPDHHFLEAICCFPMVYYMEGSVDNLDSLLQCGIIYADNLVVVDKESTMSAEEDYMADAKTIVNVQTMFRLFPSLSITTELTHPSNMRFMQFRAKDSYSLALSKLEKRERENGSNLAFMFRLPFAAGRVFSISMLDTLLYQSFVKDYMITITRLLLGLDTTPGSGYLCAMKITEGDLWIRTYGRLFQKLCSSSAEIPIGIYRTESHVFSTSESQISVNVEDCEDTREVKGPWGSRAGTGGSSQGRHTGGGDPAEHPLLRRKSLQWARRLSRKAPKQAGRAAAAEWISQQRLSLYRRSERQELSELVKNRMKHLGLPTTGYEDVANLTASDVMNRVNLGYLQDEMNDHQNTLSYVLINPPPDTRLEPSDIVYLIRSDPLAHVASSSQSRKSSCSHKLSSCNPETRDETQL
Put plainly: KCNT1-WT-Basal patch clamp assay (SyncroPatch 384PE, HEK-TREX inducible cell line). It is filed as cell-based. The note with it: tetracycline inducible HEK-TREX cells; perforated patch; holding -80 mV, 100 ms step to 0 mV; room temperature; read-out: KCNT1 WB IC50. The protocol:
KCNT1-WT-Basal—Patch Clamp Assay
Inhibition of KCNT1 (KNa1.1, Slack) was evaluated using a tetracycline inducible cell line (HEK-TREX). Currents were recorded using the SyncroPatch 384PE automated, patch clamp system. Pulse generation and data collection were performed with PatchController384 V1.3.0 and DataController384 V1.2.1 (Nanion Technologies). The access resistance and apparent membrane capacitance were estimated using built-in protocols. Current were recorded in perforated patch mode (10 μM escin) from a population of cells. The cells were lifted, triturated, and resuspended at 800,000 cells/ml. The cells were allowed to recover in the cell hotel prior to experimentation. Currents were recorded at room temperature. The external solution contained the following (in mM): NaCl 105, NMDG 40, KCl 4, MgCl2 1, CaCl2 5 and HEPES 10 (pH=7.4, Osmolarity ˜300 mOsm). The extracellular solution was used as the wash, reference and compound delivery solution. The internal solution contained the following (in mM): NaCl 70, KF 70, KCl 10, EGTA 5, HEPES 5 and Escin 0.01 (pH=7.2, Osmolarity ˜295 mOsm). Escin is made at a 5 mM stock in water, aliquoted, and stored at −20° C. The compound plate was created at 2× concentrated in the extracellular solution. The compound was diluted to 1:2 when added to the recording well. The amount of DMSO in the extracellular solution was held constant at the level used for the highest tested concentration. A holding potential of −80 mV with a 100 ms step to 0 mV was used. Mean current was measured during the step to 0 mV. […] The average mean current from 3 sweeps was calculated and the % inhibition of each compound was calculated. The % Inhibition as a function of the compound concentration was fit with a Hill equation to derive IC50, slope, min and max parameters. If KCNT1 inhibition was less than 50% at the highest tested concentration or if an IC50 could not be calculated, then a percent inhibition was reported in place of the IC50.
(In general: The patch-clamp technique gives a direct electrical read-out from membranes.)
In the case of `CNS(=O)(=O)c1ccc(C(=O)N[C@@H]2CCc3cc(Cl)ccc32)cc1` [Compound II-27], the negative logarithm of the IC50 (pIC50) – broadly, −log10 of the IC50, conventionally taken in molar units – was at least 6.00. With `O=C(N[C@@H]1CCc2cc(Cl)ccc21)c1ccc(S(=O)(=O)CC(F)F)cc1` [Compound II-51] the figure was 4.70 to 6.00.

Consider `COc1ccc(C(=O)NC2CCc3cc(Cl)ccc32)cc1` (single isomer, unassigned) [Compound II-7, N-(5-chloroindan-1-yl)-4-methoxy-benzamide], for which the pIC50 is at most 4.70. With `NS(=O)(=O)c1ccc(C(=O)N[C@@H]2CCc3cc(Cl)ccc32)s1` [Compound I-4] the figure was at least 6.00; with `CC(=O)Nc1cccc(C(=O)N[C@@H]2CCc3cc(Cl)ccc32)c1O` [Compound III-16], at least 6.00.

With `NC(=O)c1ccc(C(=O)N[C@@H]2CCCc3cc(Cl)ccc32)s1` (single isomer, unassigned) [Compound I-31], the pIC50 was at least 6.00. Then `CN(C)S(=O)(=O)c1ccc(C(=O)N[C@@H]2CCc3cc(Cl)ccc32)cc1` [Compound II-28], with at least 6.00; and `O=C(N[C@@H]1CCc2cc(Cl)ccc21)c1cc(Cl)ccc1O` [Compound III-11], with at least 6.00. In the case of `CS(=O)(=O)Nc1ccc(C(=O)NC2CCCc3cc(Cl)ccc32)cc1` (single isomer, unassigned) [Compound II-52, N-(6-chlorotetralin-1-yl)-4-(methanesulfonamido)benzamide], the pIC50 was at most 4.70. With `CS(=O)(=O)c1ncc(C(=O)N[C@@H]2CCc3cc(Cl)ccc32)s1` [Compound I-27] the figure was at least 6.00. Then `CNC(=O)c1ccc(C(=O)N[C@@H]2CCc3cc(Cl)ccc32)cc1` [Compound II-24], with 4.70 to 6.00. Then `CS(=O)(=O)N(c1ccc(C(=O)N[C@@H]2CCc3cc(Cl)ccc32)cc1)C1COC1` [Compound II-50], with 4.70 to 6.00.

As to `CS(=O)(=O)c1ccc(C(=O)N[C@@H]2CCc3cc(Cl)ccc32)s1` [Compound I-18], the pIC50 is at least 6.00. With `O=C(N[C@@H]1CCc2cc(Cl)ccc21)c1cnc(Cl)s1` [Compound I-37] the figure was at least 6.00. Take `CNS(=O)(=O)c1ccc(C(=O)N[C@@H]2CCCc3cc(Cl)ccc32)s1` (single isomer, unassigned) [Compound I-23]: the pIC50 was 4.70 to 6.00. Then `COCc1ccc(C(=O)N[C@@H]2CCc3cc(Cl)ccc32)s1` [Compound I-36], with at least 6.00; and `Nc1ccc(C(=O)N[C@@H]2CCc3cc(Cl)ccc32)cc1` [Compound II-9, 4-amino-N-[(1R)-5-chloroindan-1-yl]benzamide], with 4.70 to 6.00; and `O=C(N[C@H]1CCc2cc(Cl)ccc21)c1ccc(F)cc1` (single isomer, unassigned) [Compound II-41], with at most 4.70. Then `NS(=O)(=O)c1csc(C(=O)N[C@@H]2CCc3cc(Cl)ccc32)c1` [Compound I-5], with 4.70 to 6.00. With `CS(=O)(=O)Nc1ccc(C(=O)NC2CCc3cc(C(F)(F)F)ccc32)cc1` (single isomer, unassigned) [Compound II-56, 4-(methanesulfonamido)-N-[5-(trifluoromethyl)indan-1-yl]benzamide] the figure was at least 6.00; with `CCS(=O)(=O)N(C)c1ccc(C(=O)N[C@H]2CCc3cc(Cl)ccc32)cc1` [Compound II-19], 4.70 to 6.00. On to `O=C(N[C@@H]1CCc2cc(Cl)ccc21)c1ccc(S(=O)(=O)N2CCCC2)s1` [Compound I-17], for which the pIC50 was at least 6.00.

For the compound `NC(=O)c1ccc(C(=O)N[C@H]2CCCc3cc(Cl)ccc32)s1` (single isomer, unassigned) [Compound I-30], the negative logarithm of the IC50 (pIC50) was at most 4.70.

In the case of `O=C(N[C@@H]1CCc2cc(Cl)ccc21)c1ccc(S(=O)(=O)C2CC2)s1` [Compound I-21], the pIC50 was at least 6.00. For the compound `CCS(=O)(=O)Nc1ccc(C(=O)N[C@H]2CCc3cc(Cl)ccc32)cc1` [Compound II-17, N-[(1S)-5-chloroindan-1-yl]-4-(ethylsulfonylamino)benzamide], the pIC50 was at most 4.70. Regarding `CN(C)C(=O)c1ccc(C(=O)N[C@@H]2CCc3cc(Cl)ccc32)cc1` [Compound II-23], the pIC50 is 4.70 to 6.00.

On to `CN(C)C(=O)c1ccc(C(=O)N[C@@H]2CCc3cc(Cl)ccc32)s1` [Compound I-29], for which the negative-log IC50 (pIC50) is at least 6.00.

As to `O=C(N[C@@H]1CCc2cc(Cl)ccc21)c1ccc(F)cc1O` [Compound III-4], the pIC50 is at least 6.00.

For the compound `COc1cccc(O)c1C(=O)N[C@@H]1CCc2cc(Cl)ccc21` [Compound III-13], the negative-log IC50 (pIC50) is 4.70 to 6.00. Then `CN(c1ccc(C(=O)N[C@H]2CCc3cc(Cl)ccc32)cc1)S(=O)(=O)C(F)(F)F` [Compound II-21], with 4.70 to 6.00; and `CCS(=O)(=O)c1ccc(C(=O)N[C@@H]2CCc3cc(Cl)ccc32)s1` [Compound I-34], with at least 6.00; and `CN(c1ccc(C(=O)N[C@H]2CCc3cc(Cl)ccc32)cc1)S(=O)(=O)C1CC1` [Compound II-20], with 4.70 to 6.00.

As to `O=C(N[C@@H]1CCc2cc(Cl)ccc21)c1ccc(S(=O)(=O)N2CCC2)s1` [Compound I-19], the pIC50 was at least 6.00. With `CS(=O)(=O)c1ccc(C(=O)N[C@@H]2CCc3cc(Cl)ccc32)c(F)c1` [Compound II-36] the figure was 4.70 to 6.00; with `CS(=O)(=O)Nc1ccc(C(=O)N[C@@H]2CCc3cc(Cl)ccc32)c(O)c1` [Compound III-5], at least 6.00; with `COc1ccc(C(=O)NC2CCc3cc(Cl)ccc32)c(O)c1` (single isomer, unassigned) [Compound III-2, N-(5-chloroindan-1-yl)-2-hydroxy-4-methoxy-benzamide], at least 6.00. With `O=C(N[C@@H]1CCc2cc(Cl)ccc21)c1ccc(F)cc1` (single isomer, unassigned) [Compound II-31] the figure was at most 4.70; with `NS(=O)(=O)c1c[nH]c(C(=O)N[C@@H]2CCc3cc(Cl)ccc32)c1` [Compound I-14], at most 4.70; with `O=C(N[C@@H]1CCc2cc(Cl)ccc21)c1ccc(S(=O)(=O)C(F)(F)F)cc1` [Compound II-38], at least 6.00. Then `CN(c1ccc(C(=O)N[C@@H]2CCc3cc(Cl)ccc32)cc1)S(=O)(=O)C1CC1` [Compound II-14], with at least 6.00. With `CS(=O)(=O)N(CCO)c1ccc(C(=O)N[C@@H]2CCc3cc(Cl)ccc32)cc1` [Compound II-47], the pIC50 is 4.70 to 6.00. Turning to `CS(=O)(=O)Cc1ccc(C(=O)NC2CCc3cc(Cl)ccc32)cc1` (single isomer, unassigned) [Compound II-6, N-(5-chloroindan-1-yl)-4-(methylsulfonylmethyl)benzamide], the pIC50 was 4.70 to 6.00. Then `CS(=O)(=O)Nc1ccc(C(=O)NC2CCc3cc(F)ccc32)cc1` (single isomer, unassigned) [Compound II-57, N-[5-fluoroindan-1-yl]-4-(methanesulfonamido)benzamide], with 4.70 to 6.00.

The record behind these values is patent US20220280476A1, “KCNT1 INHIBITORS AND METHODS OF USE” (Praxis Precision Medicines, Inc., priority 2019, published 2022).
